# Laboratory results as given in patent publication EP0812190B1 (priority 1993, dated 1995).
# Where two headings read alike, the source gives them in different places.
# How the values were obtained:
# [1] = test system: guinea-pig ileum
# [2] = test system: anoxia-induced hyperactive syndrome; settings: 0.5 mg/kg/day to nursing mothers
# Procedure: Anoxia was performed on rat pups on the first post-natal day. They were placed in a glass chamber and exposed to 100% nitrogen for 25 minutes. They were resuscitated by intermittent massage softly applied to the chest and then returned to their respective mothers. Control rats received the same treatment but with air instead of nitrogen.
# Locomotion was measured in 6 fully computerized cages (28 x 28 cm) by recording the number of crossings over a given period of time. Crossings of grid infrared beams at 4-cm intervals initiated electrical impulses which fed a counter.
# Recordings of motor activity were made at the ages of 15 and 20 days, over a period of 15 minutes.
# [3] = test system: passive avoidance response
# Procedure: [R] (+)PAI or [S] (-)PAI were administered according to one of the following protocols.
# Protocol A - Nursing mothers were given a dose of either isomer of 1-1.5 mg/kg/day in drinking water until weaning at 21 days. Following that, the weaned offsprings were directly treated with the same dose for 20 days. Treatment was terminated at 40 days and the test was performed at 60 days, that is 20 days after the last dose of the drug.
# Protocol B - The dose was reduced to 0.5 mg/kg/day administered to the nursing mother until weaning at 21 days, then directly to the young rats to 60 days at which time the test was performed. ,
# Passive Avoidance Test - The apparatus consisted of a lit chamber adjoining a dark chamber and a sliding door separating the two. At training, a rat was placed in the lit chamber for 30 seconds, and then the door was opened. The rat moved to the dark chamber with a latency that was recorded. Upon entry of the rat into the dark compartment, the door was closed and a 0.3 mA foot-shock was delivered for 3 seconds.
# [4] = Protocol A, Anoxia-lesioned rats
# [5] = Protocol B, Anoxia-lesioned rats
compound,measurement,setting,value
"C#CCN[C@@H]1CCc2ccccc21 [[R](+)PAI, R(+)-N-propargyl-1-aminoindan]",gram-tension,"[1]; bethanechol 0.8 µM, 400 µM PAI HCl enantiomer",0.2 gram-tension
same,gram-tension,"[1]; bethanechol 2 µM, 400 µM enantiomer",0.3 gram-tension
same,gram-tension,"[1]; bethanechol 4 µM, 400 µM enantiomer",0.7 gram-tension
same,gram-tension,"[1]; bethanechol 8 µM, 400 µM enantiomer",1.0 gram-tension
same,gram-tension,"[1]; bethanechol 20 µM, 400 µM enantiomer",2.0 gram-tension
same,gram-tension,"[1]; bethanechol 40 µM, 400 µM enantiomer",2.8 gram-tension
same,gram-tension,"[1]; bethanechol 80 µM, 400 µM enantiomer",3.1 gram-tension
same,gram-tension,"[1]; bethanechol 200 µM, 400 µM enantiomer",4.3 gram-tension
same,numbers of crossings of infrared beam grid over 15 minutes,"[2]; Anoxia-lesioned, 15-day old rats",276 ± 186(15)a
same,numbers of crossings of infrared beam grid over 15 minutes,"[2]; Anoxia-lesioned, 20-day old rats",737 ± 150 (16) c
same,numbers of crossings of infrared beam grid over 15 minutes,"[2]; Control, 15-day old rats",254 ± 149(11)c
same,numbers of crossings of infrared beam grid over 15 minutes,"[2]; Control, 20-day old rats",719 ± 110(13)
same,latency After Electroshock,[3]; [4],239 ± 99 s
same,latency Before Electroshock,[3]; [4],49 ± 10 s
same,percent increase of latency After Electroshock,"[3]; Protocol A, Anoxia-lesioned rats, versus corresponding anoxia group",19%
same,latency After Electroshock,"[3]; Protocol A, Control rats",220 ± 100 s
same,percent increase of latency After Electroshock,"[3]; Protocol A, Control rats, versus corresponding control group",+9%
same,latency Before Electroshock,"[3]; Protocol B (0.5 mg/kg/day), Control rats",48 ± 11 s
same,latency After Electroshock,[3]; [5],137 ± 126 s
same,latency Before Electroshock,[3]; [5],52 ± 12 s
same,percent increase of latency After Electroshock,[3]; [5],+15%
same,latency After Electroshock,"[3]; Protocol B, Control rats",128 ± 119 s
same,percent increase of latency After Electroshock,"[3]; Protocol B, Control rats",+23%
